From US4409210A, “Antibiotic compound” (priority 1982, dated 1983)
≈ marks a conversion by molar mass, not a printed value.

Legend:
Type in all cases: cell-based
[1] = tested on: Staphylococcus aureus #193; assay: MIC, serial two-fold dilution method (aerobic)
[2] = tested on: Staphylococcus aureus 209P; assay: MIC, serial two-fold dilution method (aerobic)
[3] = tested on: Fusobacterium nucleatum A21906; assay: MIC, serial two-fold dilution method (anaerobic)
[4] = tested on: Bacteroides ovatus A22400; assay: MIC, serial two-fold dilution method (anaerobic)
[5] = tested on: Bacteroides fragilis A22053; assay: MIC, serial two-fold dilution method (anaerobic)
[6] = tested on: Bacillus subtilis ATCC 6633; assay: MIC, serial two-fold dilution method (aerobic)
[7] = tested on: Fusobacterium varium ATCC 8501; assay: MIC, serial two-fold dilution method (anaerobic)
[8] = tested on: Staphylococcus aureus A9856; assay: MIC, serial two-fold dilution method (aerobic)
[9] = tested on: Pseudomonas aeruginosa D-113; assay: MIC, serial two-fold dilution method (aerobic)
[10] = tested on: Staphylococcus aureus A9601; assay: MIC, serial two-fold dilution method (aerobic)
[11] = tested on: Veillonella parvula A20010; assay: MIC, serial two-fold dilution method (anaerobic)
[12] = tested on: Staphylococcus aureus A20394; assay: MIC, serial two-fold dilution method (aerobic)
[13] = tested on: Bacteroides fragilis A20929; assay: MIC, serial two-fold dilution method (anaerobic)
[14] = tested on: Peptostreptococcus intermedius A21881; assay: MIC, serial two-fold dilution method (anaerobic)
[15] = tested on: Staphylococcus aureus Smith; assay: MIC, serial two-fold dilution method (aerobic)
[16] = tested on: Bacteroides fragilis A21900; assay: MIC, serial two-fold dilution method (anaerobic)
[17] = tested on: Propionibacterium acnes A21933; assay: MIC, serial two-fold dilution method (anaerobic)
Micrococcus flavus D-12 = assay: MIC, serial two-fold dilution method (aerobic)
[18] = tested on: Bacillus anthracis IID-115; assay: microbe, parasite or virus in culture
[19] = tested on: Propionibacterium acnes A21953; assay: MIC, serial two-fold dilution method (anaerobic)
[20] = tested on: Clostridium cylindrosporum A9562; assay: MIC, serial two-fold dilution method (anaerobic)
[21] = tested on: Bacteroides fragilis CUH-24; assay: MIC, serial two-fold dilution method (anaerobic)
[22] = tested on: Bacteroides fragilis A20928-1; assay: MIC, serial two-fold dilution method (anaerobic)
[23] = tested on: Staphylococcus aureus A20610; assay: MIC, serial two-fold dilution method (aerobic)
[24] = tested on: Clostridium perfringens A22787; assay: microbe, parasite or virus in culture
[25] = tested on: Staphylococcus aureus BX-1633; assay: MIC, serial two-fold dilution method (aerobic)
[26] = tested on: Staphylococcus aureus A22421; assay: MIC, serial two-fold dilution method (aerobic)
Proteus vulgaris A9436 = assay: MIC, serial two-fold dilution method (aerobic)
[27] = Staphylococcus aureus, read-out: minimum inhibitory concentration (MIC)

CN[C@H](CC(C)C)C(=O)N[C@H]1C(=O)N[C@@H](CC(N)=O)C(=O)N[C@H]2C(=O)N[C@H]3C(=O)N[C@H](C(=O)N[C@H](C(=O)O)c4cc(O)cc(O)c4-c4cc3ccc4O)[C@H](O)c3ccc(c(Cl)c3)Oc3cc2cc(c3O[C@@H]2O[C@H](CO)[C@@H](O)[C@H](O)[C@H]2O[C@H]2C[C@](C)(N)[C@H](O)[C@H](C)O2)Oc2ccc(cc2Cl)[C@H]1O [Vancomycin]
MIC [1, 27]: 0.8 µg/mL (≈ 0.552 µM) | MIC ([2]; Staphylococcus aureus, 209P, read-out: minimum inhibitory concentration (MIC)): 0.4 µg/mL (≈ 0.276 µM) | MIC ([3]; Fusobacterium nucleatum, A21906, read-out: minimum inhibitory concentration (MIC)): 0.8 µg/mL (≈ 0.552 µM) | MIC ([4]; Bacteroides ovatus, A22400, read-out: minimum inhibitory concentration (MIC)): 50 µg/mL (≈ 34.5 µM) | MIC ([5]; Bacteroides fragilis, A22053, read-out: minimum inhibitory concentration (MIC)): 50 µg/mL (≈ 34.5 µM) | MIC ([6]; Bacillus subtilis, ATCC6633, read-out: minimum inhibitory concentration (MIC)): 0.1 µg/mL (≈ 0.069 µM) | MIC ([7]; Fusobacterium varium, ATCC8501, read-out: minimum inhibitory concentration (MIC)): 6.3 µg/mL (≈ 4.35 µM) | MIC ([8]; Staphylococcus aureus, A9856, read-out: minimum inhibitory concentration (MIC)): 0.8 µg/mL (≈ 0.552 µM) | MIC ([9]; Pseudomonas aeruginosa, D113, read-out: minimum inhibitory concentration (MIC)): > 100 µg/mL | MIC ([10]; Staphylococcus aureus, A9601, read-out: minimum inhibitory concentration (MIC)): 0.8 µg/mL (≈ 0.552 µM) | MIC ([11]; Veillonella parvula, A20010, read-out: minimum inhibitory concentration (MIC)): 0.8 µg/mL (≈ 0.552 µM) | MIC ([12]; Staphylococcus aureus, A20394, read-out: minimum inhibitory concentration (MIC)): 0.4 µg/mL (≈ 0.276 µM) | MIC ([13]; Bacteroides fragilis, A20929, read-out: minimum inhibitory concentration (MIC)): 0.8 µg/mL (≈ 0.552 µM) | MIC ([14]; Peptostreptococcus, A21881, read-out: minimum inhibitory concentration (MIC)): 1.6 µg/mL (≈ 1.1 µM) | MIC [15, 27]: 0.8 µg/mL (≈ 0.552 µM) | MIC ([16]; Bacteroides fragilis, A21900, read-out: minimum inhibitory concentration (MIC)): 6.3 µg/mL (≈ 4.35 µM) | MIC ([17]; Cutibacterium acnes, A21933, read-out: minimum inhibitory concentration (MIC)): 0.8 µg/mL (≈ 0.552 µM) | MIC (Micrococcus flavus D-12; Micrococcus flavus, D12, read-out: minimum inhibitory concentration (MIC)): 0.2 µg/mL (≈ 0.138 µM) | MIC ([18]; Bacillus anthracis, IID115, read-out: minimum inhibitory concentration (MIC)): 1.6 µg/mL (≈ 1.1 µM) | MIC ([19]; Cutibacterium acnes, A21953, read-out: minimum inhibitory concentration (MIC)): 0.8 µg/mL (≈ 0.552 µM) | MIC ([20]; Clostridium cylindrosporum, A9562, read-out: minimum inhibitory concentration (MIC)): 0.8 µg/mL (≈ 0.552 µM) | MIC ([21]; Bacteroides fragilis, CUH24, read-out: minimum inhibitory concentration (MIC)): 25 µg/mL (≈ 17.3 µM) | MIC ([22]; Bacteroides fragilis, A209281, read-out: minimum inhibitory concentration (MIC)): 3.1 µg/mL (≈ 2.14 µM) | MIC ([23]; Staphylococcus aureus, A20610, read-out: minimum inhibitory concentration (MIC)): 0.8 µg/mL (≈ 0.552 µM) | MIC ([24]; Clostridium perfringens, A22787, read-out: minimum inhibitory concentration (MIC)): 0.8 µg/mL (≈ 0.552 µM) | MIC ([25]; Staphylococcus aureus, BX1633, read-out: minimum inhibitory concentration (MIC)): 0.8 µg/mL (≈ 0.552 µM) | MIC ([26]; Staphylococcus aureus, A22421, read-out: minimum inhibitory concentration (MIC)): 0.8 µg/mL (≈ 0.552 µM) | MIC (Proteus vulgaris A9436; Proteus vulgaris, A9436, read-out: minimum inhibitory concentration (MIC)): > 100 µg/mL

Amphomycin
minimum inhibitory concentration (MIC) ([1]; Staphylococcus aureus #193, Mueller-Hinton agar, inoculum 10^4): 3.1 µg/mL | minimum inhibitory concentration (MIC) ([2]; Staphylococcus aureus 209P, Mueller-Hinton agar, inoculum 10^4): 3.1 µg/mL | minimum inhibitory concentration (MIC) ([3]; Fusobacterium nucleatum A21906, GAM agar medium, inoculum 10^7-10^8): 6.3 µg/mL | minimum inhibitory concentration (MIC) ([4]; Bacteroides ovatus A22400, GAM agar medium, inoculum 10^7-10^8): > 100 µg/mL | minimum inhibitory concentration (MIC) ([5]; Bacteroides fragilis A22053, GAM agar medium, inoculum 10^7-10^8): > 100 µg/mL | minimum inhibitory concentration (MIC) ([6]; Bacillus subtilis ATCC 6633, Mueller-Hinton agar, inoculum 10^4): 1.6 µg/mL | minimum inhibitory concentration (MIC) ([7]; Fusobacterium varium ATCC 8501, GAM agar medium, inoculum 10^7-10^8): 25 µg/mL | minimum inhibitory concentration (MIC) ([8]; Staphylococcus aureus A9856, Mueller-Hinton agar, inoculum 10^4): 3.1 µg/mL | minimum inhibitory concentration (MIC) ([9]; Pseudomonas aeruginosa D-113, Mueller-Hinton agar, inoculum 10^4): > 100 µg/mL | minimum inhibitory concentration (MIC) ([10]; Staphylococcus aureus A9601, Mueller-Hinton agar, inoculum 10^4): 3.1 µg/mL | minimum inhibitory concentration (MIC) ([11]; Veillonella parvula A20010, GAM agar medium, inoculum 10^7-10^8): 6.3 µg/mL | minimum inhibitory concentration (MIC) ([12]; Staphylococcus aureus A20394, Mueller-Hinton agar, inoculum 10^4): 3.1 µg/mL | minimum inhibitory concentration (MIC) ([13]; Bacteroides fragilis A20929, GAM agar medium, inoculum 10^7-10^8): 50 µg/mL | minimum inhibitory concentration (MIC) ([14]; Peptostreptococcus intermedius A21881, GAM agar medium, inoculum 10^7-10^8): 6.3 µg/mL | minimum inhibitory concentration (MIC) ([15]; Staphylococcus aureus Smith, Mueller-Hinton agar, inoculum 10^4): 3.1 µg/mL | minimum inhibitory concentration (MIC) ([16]; Bacteroides fragilis A21900, GAM agar medium, inoculum 10^7-10^8): 25 µg/mL | minimum inhibitory concentration (MIC) ([17]; Propionibacterium acnes A21933, GAM agar medium, inoculum 10^7-10^8): 3.1 µg/mL | minimum inhibitory concentration (MIC) (Micrococcus flavus D-12; Micrococcus flavus D-12, Mueller-Hinton agar, inoculum 10^4): 0.4 µg/mL | minimum inhibitory concentration (MIC) ([18]; Bacillus anthracis IID-115, Mueller-Hinton agar, inoculum 10^4): 0.8 µg/mL | minimum inhibitory concentration (MIC) ([19]; Propionibacterium acnes A21953, GAM agar medium, inoculum 10^7-10^8): 6.3 µg/mL | minimum inhibitory concentration (MIC) ([20]; Clostridium cylindrosporum A9562, GAM agar medium, inoculum 10^7-10^8): 25 µg/mL | minimum inhibitory concentration (MIC) ([21]; Bacteroides fragilis CUH-24, GAM agar medium, inoculum 10^7-10^8): > 100 µg/mL | minimum inhibitory concentration (MIC) ([22]; Bacteroides fragilis A20928-1, GAM agar medium, inoculum 10^7-10^8): 25 µg/mL | minimum inhibitory concentration (MIC) ([23]; Staphylococcus aureus A20610, Mueller-Hinton agar, inoculum 10^4): 3.1 µg/mL | minimum inhibitory concentration (MIC) ([24]; Clostridium perfringens A22787, GAM agar medium, inoculum 10^7-10^8): 12.5 µg/mL | minimum inhibitory concentration (MIC) ([25]; Staphylococcus aureus BX-1633, Mueller-Hinton agar, inoculum 10^4): 3.1 µg/mL | minimum inhibitory concentration (MIC) ([26]; Staphylococcus aureus A22421, Mueller-Hinton agar, inoculum 10^4): 3.1 µg/mL | minimum inhibitory concentration (MIC) (Proteus vulgaris A9436; Proteus vulgaris A9436, Mueller-Hinton agar, inoculum 10^4): > 100 µg/mL
